Results on 21 compounds are retold here after ChEMBL document CHEMBL5335779, “The research progress of SARS-CoV-2 main protease inhibitors from 2020 to 2022” (Eur J Med Chem, 2023).

Structures can show the parent of a compound that is named as a salt.

Data set [1] addresses T1, Replicase polyprotein 1ab (Severe acute respiratory syndrome coronavirus 2, UniProt P0DTD1). In words: Binding affinity to SARS-CoV-2 Main protease assessed as inhibition constant.
Data set [2] concerns the target T1, Replicase polyprotein 1ab. In words: Inhibition of GST-tagged SARS-CoV-2 Main protease expressed in Escherichia coli BL21 using Dabcyl-Val-Asn-Ser-Thr-Leu-Gln-Ser-Gly-Leu-Arg-Lys-EDANS as fluorogenic substrate preincubated for 10 mins followed by substrate addition and measured after 1 hrs by FRET assay.
Data set [3] has as its target T1, Replicase polyprotein 1ab. In words: Inhibition of C-terminal SARS-CoV-2 Main protease expressed in Escherichia coli using ALNDFSNSGSDVLYQPPQTSITSAVLQ/SGFRKMAFPS-NH2 as substrate preincubated for 5 mins followed by compound addition and measured after 20 mins by FRET analysis.
Data set [4] concerns SARS-CoV-2. In words: Antiviral activity against SARS-CoV-2 WA1 infected in human A549-hACE2-TMPRSS2 cells assessed as reduction in viral replication. The format is functional, organism-based. The settings on record: Severe acute respiratory syndrome coronavirus 2, WA1, A549-hACE2-TMPRSS2.
Data set [5] relates to SARS-CoV-2. The format is functional, organism-based. The settings on record: Severe acute respiratory syndrome coronavirus 2, Vero C1008, 64 h.
The target of data set [6] is T1, Replicase polyprotein 1ab. In words: Inhibition of full length GST-tagged SARS-CoV-2 Main protease expressed in Escherichia coli.
Data set [7] concerns SARS-CoV-2. The class given is functional, organism-based. To be noted: Severe acute respiratory syndrome coronavirus 2, Vero C1008.
The subject of a further data set is Human coronavirus 229E. In words: Antiviral activity against HCoV-229E infected in human Huh-7 cells assessed as reduction in viral replication. The format is functional, organism-based.
The nature of data set [8]: Clearance in CD1 mouse at 5 mg/kg, ip. The format is ADME, organism-based. The settings on record: in vivo.
For data set [9], the target named is T1, Replicase polyprotein 1ab. Description: Inhibition of C-terminal GST-tagged SARS-CoV-2 Main protease by using MCA-AVLQSGFR(Dnp)-Lys-NH2 as fluorogenic substrate incubated for 15 mins followed by substrate addition by spectrophotometric analysis.
Data set [10] concerns the target T1, Replicase polyprotein 1ab. In words: Inhibition of recombinant N-terminal SARS-CoV-2 Main protease expressed in Escherichia coli using MCA-AVLQSGFR-Lys(Dnp)-Lys-NH2 as substrate incubated for 1 hr by FRET assay.
The target in data set [11] is T1, Replicase polyprotein 1ab.
The target in data set [12] is T1, Replicase polyprotein 1ab. In words: Inhibition of N-terminal SARS-CoV-2 Main protease expressed in Escherichia coli BL21 (DE3) by using MCA-AVLQSGFR-Lys (Dnp)-Lys-NH as fluorogenic substrate by FRET assay.
A short description of data set [13]: Oral bioavailability in Sprague-Dawley rat at 20 mg/kg by LC-MS/MS analysis. The format is ADME, organism-based. The settings on record: in vivo.
Data set [14] is described as follows: Clearance in Sprague-Dawley rat at 20 mg/kg, iv by LC-MS/MS analysis. The class given is ADME, organism-based. The settings on record: in vivo.
Data set [15] is described as follows: Half life in Sprague-Dawley rat at 20 mg/kg, po by LC-MS/MS analysis. The format is ADME, organism-based. To be noted: in vivo.
The target in data set [16] is T1, Replicase polyprotein 1ab. Description: Inhibition of SARS-CoV-2 3CL protease by FRET assay.
The target in data set [17] is T1, Replicase polyprotein 1ab. Description: Inhibition of N-terminal 6His-tagges SARS-CoV-2 PLpro Wuhan (1524 to 1883 residues) expressed in Escherichia coli BL21(DE3) using Arg-Leu-Arg-Gly-Gly-AMC as substrate preincubated for 5 mins followed by substrate addition measured after 6 mins by fluorescence based assay.
The subject of data set [18] is SARS-CoV-2. The format is functional, organism-based. The settings on record: Severe acute respiratory syndrome coronavirus 2, 2019BetaCoV/Wuhan/WIV04/2019, Vero C1008, 48 h.
Data set [19] addresses T1, Replicase polyprotein 1ab. In words: Inhibition of N-terminal GST-tagged SARS-CoV-2 Main protease expressed in Escherichia coli BL21 (DE3) using DABCYL-KTSAVLQSGFRKME-EDANS as fluorogenic substrate preincubated for 10 mins followed by compound addition and measured after 1 hr by FRET assay.

Take `C=CCn1ccc2c(C(=O)Oc3cncc(Cl)c3)cccc21`: in data set [1], the inhibition constant Ki (commonly a dissociation constant, usually derived from enzyme kinetics or from competition with a known ligand) worked out at 73 nM.
With `COc1cccc(-n2[se]c3ccccc3c2=O)c1`, half-maximal inhibition in data set [2] (IC50) required 4080 nM.
As for `CC1(C)[C@H](C(=O)OCc2ccccc2)C2C(=O)C(Br)(Br)[C@H]2S1(=O)=O` (stereo not given in full), the half-maximal inhibitory concentration (IC50) (in general, the concentration needed to halve the response being measured) in data set [3] was determined as 700 nM.
For `C[C@H](NC(=O)[C@@H](c1cccnc1)N(C(=O)C(Br)(Br)Br)c1ccc(-c2ccccc2)cc1)c1ccccc1`, the EC50 (commonly the concentration that produces a half-maximal response) with SARS-CoV-2 [4] worked out at 2150 nM; with SARS-CoV-2 [5], 580 nM.
Take `CC(C)C[C@H](NC(=O)[C@@H](NC(=O)c1ccc(Cl)cc1)C(C)C)C(=O)N[C@H](C=O)C[C@@H]1CCCNC1=O`: in data set [6], the IC50 turned out to be 140 nM.
As for `O=c1sn(-c2cccc3ccccc23)c(=O)n1Cc1ccccc1` [TIDEGLUSIB], in the data set with SARS-CoV-2 [7], the midpoint of inhibition, the IC50, lay at 670 nM.
In the case of `CC(C)(C)[C@H](NC(=O)C(F)(F)F)C(=O)N1C[C@H]2[C@@H]([C@H]1C(=O)N[C@@H](C[C@@H]1CCNC1=O)C(=O)c1nc3ccccc3s1)C2(C)C`, in the data set with Human coronavirus 229E, the half-inhibitory concentration (IC50) was 24 nM.
`O=C[C@H](C[C@@H]1CCNC1=O)NC(=O)[C@H](CC1CCCCC1)NC(=O)c1cc2ccccc2[nH]1`: the CL/F (usually the apparent clearance, not corrected for the fraction that reaches the circulation) in data set [8] was 17.4 mL/min/kg.
Take `CC(C)(C)[C@H](NC(=O)C(F)(F)F)C(=O)N1C[C@H]2[C@@H]([C@H]1C(=O)N[C@@H](C[C@@H]1CCNC1=O)C(=O)CO)C2(C)C`: the IC50 in the data set on Human coronavirus 229E came to 13 nM.
In the case of `Nc1ccc2cc3ccc(N)cc3nc2c1` [PROFLAVINE SULFATE], in data set [9], the IC50 was 2070 nM.
As to `O=C[C@H](C[C@@H]1CCNC1=O)NC(=O)[C@@H]1[C@H]2CCC[C@H]2CN1C(=O)CCc1cc(F)cc(F)c1`, in data set [10], the 50% inhibitory concentration (IC50) came to 7 nM.
Compound `NC1CC1c1ccccc1` (stereo not given) had a half-inhibitory concentration (IC50) in [11] of 8640 nM.
Take `O=c1c2ccccc2[se]n1Cc1ccco1`: the IC50 in data set [12] was 70 nM.
Take `O=C[C@H](C[C@@H]1CCNC1=O)NC(=O)[C@@H]1[C@H]2CCC[C@H]2CN1C(=O)COc1ccc(Cl)cc1Cl`: the bioavailability (in general, the share of a dose that reaches the circulation, judged against a reference dose that is usually intravenous) in data set [13] is 76.2%. Further, the clearance (usually a measure of how efficiently the substance is removed, as volume per time) in data set [14] worked out at 17.1 mL/min/kg. Also, the half-life (in general, the time in which the quantity being followed falls by half) in data set [15] was 3.88 h.
The compound `CC1(C)[C@H](C(=O)OCc2ccc([N+](=O)[O-])cc2)C2C(=O)C(Br)(Br)[C@H]2S1(=O)=O` (stereo not given in full) gave a 50% inhibitory concentration (IC50) in data set [3] of 600 nM.
`CCCCCCCCCC(=O)N[C@H]1[C@H](Oc2c3cc4cc2Oc2ccc(cc2Cl)[C@@H](O[C@@H]2O[C@H](CO)[C@@H](O)[C@H](O)[C@H]2NC(C)=O)[C@@H]2NC(=O)[C@H](NC(=O)[C@@H]4NC(=O)[C@H]4NC(=O)[C@H](Cc5ccc(c(Cl)c5)O3)NC(=O)[C@H](N)c3ccc(O)c(c3)Oc3cc(O)cc4c3)c3ccc(O)c(c3)-c3c(O[C@H]4O[C@H](CO)[C@@H](O)[C@H](O)[C@@H]4O)cc(O)cc3[C@@H](C(=O)O)NC2=O)O[C@H](CO)[C@@H](O)[C@@H]1O` [TEICOPLANIN A2-3] yielded a 50% inhibitory concentration (IC50) in data set [16] of 1500 nM.
Consider `CCOC(=O)[C@@H]1O[C@H]1C(=O)N(CCC(N)=O)NC(=O)[C@H](Cc1ccccc1)NC(=O)[C@H](CC(C)C)NC(=O)OCc1ccccc1`, for which inhibition in data set [17] was half-maximal at 960 nM (IC50).
Same read-out and setting: the figure for `C[C@H](NC(=O)OCc1ccccc1)C(=O)N[C@@H](C)C(=O)NN(CC(N)=O)C(=O)/C=C/C(=O)c1ccccc1` is 490 nM.
In the case of `CC(C)(C)NC(=O)N[C@H](C(=O)N1C[C@H]2[C@@H]([C@H]1C(=O)NC(CC1CCC1)C(=O)C(N)=O)C2(C)C)C(C)(C)C` (stereo not given in full) [BOCEPREVIR], the 50% inhibitory concentration (IC50) in the data set with SARS-CoV-2 [18] is 4130 nM.
Regarding `C[C@H](NC(=O)[C@@H](c1cccnc1)N(C(=O)C(Cl)Cl)c1ccc(-c2ccccc2)cc1)c1ccccc1`, the results for the concentration giving a half-maximal response (EC50) in the data set with SARS-CoV-2 [4] and in the data set on SARS-CoV-2 [5] were 2050 nM and 900 nM, respectively.
For the compound `C=CS(=O)(=O)N(c1ccc(C(C)(C)C)cc1)C(C(=O)NC1CCCCC1)c1cccnc1` (stereo not given), inhibition in data set [19] was half-maximal at 420 nM (IC50).
